Measurements reported in ChEMBL document CHEMBL3507680, “University of Dundee, Gates Library screen for HepG2 cell viability”.

Test: Human HepG2 cell viability assay in 384 well format
Type: toxicity, cell-based
Parameters: dose 125 nL, time 70.5 hour; concentration not given beside the values
Conditions: HepG2 cells, read-out: Inhibition

Cc1cnn(CC2CCCN2C(=O)c2cccc(F)c2F)c1 (stereo not drawn)
cytotoxicity at 70.5 h: -1.26%

COCCc1noc(CN2CCCC2Cn2nc(C)cc2C)n1 (stereo not drawn)
cytotoxicity at 70.5 h: 1.57%

COc1cccc(S(=O)(=O)CCNC2CCc3ncnn3C2)c1 (stereo not drawn)
cytotoxicity at 70.5 h: -4.52%

O=C(COc1ccc(Cl)cc1)N1CCN(c2cnccn2)CC1
cytotoxicity at 70.5 h: -0.713%

Cc1noc(C)c1C(=O)NCC(C)N1CCc2ccccc21 (stereo not drawn)
cytotoxicity at 70.5 h: 9.63%

CS(=O)(=O)N1CCC(NC(=O)COc2ccccc2Cl)CC1
cytotoxicity at 70.5 h: -3.89%

Cc1ccc(OCC(=O)NC2CCN(S(C)(=O)=O)CC2)cc1
cytotoxicity at 70.5 h: -1.26%

COc1ncccc1NC(=O)NC1CCCN(c2ncccn2)C1 (stereo not drawn)
cytotoxicity at 70.5 h: 1.22%

COCCCNC(=O)Nc1ccc(F)c(C(N)=O)c1
cytotoxicity at 70.5 h: 0.915%

CCCc1nc(C)c(C(=O)NCCN2CCOCC2)s1
cytotoxicity at 70.5 h: 21.3%

COC(=O)c1cccn1C1CCN(Cc2cccc(C(N)=O)c2)CC1
cytotoxicity at 70.5 h: -0.0643%

CCOc1ncccc1NC(=O)NC1CCN(C(C)=O)CC1
cytotoxicity at 70.5 h: 1.62%

COc1ccc(OCC(=O)NS(=O)(=O)c2ccc(Br)s2)cc1
cytotoxicity at 70.5 h: 18.9%

COc1cc(C)ccc1OCC(=O)NS(=O)(=O)c1ccc(Br)s1
cytotoxicity at 70.5 h: -4.31%

Cc1cnn(CC2CCCCN2c2nn3cc(C)nc3s2)c1 (stereo not drawn)
cytotoxicity at 70.5 h: 21.1%

CN(CC(=O)N1CCCCC1c1nc(C(C)(C)C)cs1)C1CC1 (stereo not drawn)
cytotoxicity at 70.5 h: 1.94%

c1cnn(CCN2CCOC(Cn3cccn3)C2)c1 (stereo not drawn)
cytotoxicity at 70.5 h: -4.95%

OC1(CN2CCOC(Cn3cccn3)C2)CCCCC1 (stereo not drawn)
cytotoxicity at 70.5 h: 0.595%

Cc1ncccc1CNCC1CCCN1c1cccnn1 (stereo not drawn)
cytotoxicity at 70.5 h: -3.29%

Cc1cc(C(=O)N2CCCC(n3cncn3)C2)c(C)n1CC1CC1 (stereo not drawn)
cytotoxicity at 70.5 h: -2.26%

Cc1nnc(NC(=O)NCc2ccnc(N(C)C)c2)s1
cytotoxicity at 70.5 h: 1.13%

CC(NC(=O)NCc1cc(Br)cs1)c1ccccn1 (stereo not drawn)
cytotoxicity at 70.5 h: -3.66%

COc1ccc(C)cc1C(C)NC(=O)Cn1ccc(=O)n(C)c1=O (stereo not drawn)
cytotoxicity at 70.5 h: -1.39%

Cc1cc(C(=O)N2CCCC(n3cccn3)C2)c(C)n1C1CC1 (stereo not drawn)
cytotoxicity at 70.5 h: -2.54%

NC(=O)c1csc(C(=O)N2CCCC(n3cccn3)C2)c1 (stereo not drawn)
cytotoxicity at 70.5 h: 1.27%

CC(C)=CCN1CCOC(Cn2cccn2)C1 (stereo not drawn)
cytotoxicity at 70.5 h: 1.11%

Cc1cn2nc(N3CCCC3Cn3nc(C)nc3C)sc2n1 (stereo not drawn)
cytotoxicity at 70.5 h: -5.44%

NC(=O)c1ccc(C(=O)N2CCCC(n3ccnc3)C2)s1 (stereo not drawn)
cytotoxicity at 70.5 h: -2.91%

c1ncn(CC2CN(CC3CCCCC3)CCO2)n1 (stereo not drawn)
cytotoxicity at 70.5 h: 2.16%

OCC1CCCN1c1cc(NCc2ccsc2)ncn1 (stereo not drawn)
cytotoxicity at 70.5 h: 1.84%

Cc1ncsc1CNc1cc(N2CCCC2CO)ncn1 (stereo not drawn)
cytotoxicity at 70.5 h: 26.9%

CCc1ccc(CNc2cc(N3CCCC3CO)ncn2)s1 (stereo not drawn)
cytotoxicity at 70.5 h: 1.8%

Cc1n[nH]c(C2CN(CCc3cccs3)CCO2)n1 (stereo not drawn)
cytotoxicity at 70.5 h: 14.5%

CCCc1n[nH]c(C2CN(CCc3cccs3)CCO2)n1 (stereo not drawn)
cytotoxicity at 70.5 h: -3.81%

COc1cccc(CN2CCCC2Cn2nc(C)nc2C)c1 (stereo not drawn)
cytotoxicity at 70.5 h: 3.03%

O=C(CCN1CCc2c(ncn2C2CC2)C1)NC1CCCC1
cytotoxicity at 70.5 h: -6.41%

CC(C)c1nc(C2CCCN(C(=O)c3ccc4c(c3)COC4)C2)no1 (stereo not drawn)
cytotoxicity at 70.5 h: 0.421%

Cc1cc(F)ccc1CNCc1cccc(C(=O)N2CCCC2)c1
cytotoxicity at 70.5 h: -1.53%

CCn1ccnc1CN1CCCN(C(=O)Cc2ccc(C)s2)CC1
cytotoxicity at 70.5 h: 26.4%

CNS(=O)(=O)c1ccc(CNC(=O)c2c(C)oc(C)c2C)cc1
cytotoxicity at 70.5 h: -12.9%

O=C(c1cccc(CNS(=O)(=O)c2ccc(F)cc2)c1)N1CCCC1
cytotoxicity at 70.5 h: -9.64%

CC(C)CCC(=O)NCCc1ccn(-c2ccccc2)n1
cytotoxicity at 70.5 h: -5.88%

CC(c1nc(C2CC2)no1)N1CCN(Cc2nnc(C3CC3)o2)CC1 (stereo not drawn)
cytotoxicity at 70.5 h: -2.67%

CCC(CC)C(=O)NCCc1ccn(-c2ccccc2)n1
cytotoxicity at 70.5 h: -0.813%

Cc1cnn(CC2CCCCN2C(=O)c2cnc3n[nH]c(C)c3c2)c1 (stereo not drawn)
cytotoxicity at 70.5 h: -4.13%

CSCc1ccc(CNC2CCCN(c3ccc(C)nn3)C2)o1 (stereo not drawn)
cytotoxicity at 70.5 h: -9.42%

CCn1ccnc1CN1CCCN(C(=O)Cc2ccc(F)cc2)CC1
cytotoxicity at 70.5 h: 17.5%

O=C(c1cn(-c2ccccc2)nn1)N1CCCC(n2cccn2)C1 (stereo not drawn)
cytotoxicity at 70.5 h: -3.98%

Cc1cnn(CC2CCCN2C(=O)c2cc(C)nc3[nH]nc(C)c23)c1 (stereo not drawn)
cytotoxicity at 70.5 h: -3.88%

Cc1ccc(CC(=O)N2CCCN(Cc3nccn3C)CC2)cn1
cytotoxicity at 70.5 h: -1.57%

CC(C)c1nc(C2CCCN(C(=O)c3ccc4c(c3)OCO4)C2)no1 (stereo not drawn)
cytotoxicity at 70.5 h: 18.1%

CCn1cc(C(=O)N2CCCC(c3noc(C)n3)C2)cn1 (stereo not drawn)
cytotoxicity at 70.5 h: -2.74%

CC(C)c1nc(C2CCCN(C(=O)c3ccc4nncn4c3)C2)no1 (stereo not drawn)
cytotoxicity at 70.5 h: -5.81%

Cc1nc(C2CCCN(C(=O)c3ccc(S(C)(=O)=O)cc3)C2)no1 (stereo not drawn)
cytotoxicity at 70.5 h: -6.59%

Cc1nc(C2CCCN(C(=O)c3ccoc3)C2)no1 (stereo not drawn)
cytotoxicity at 70.5 h: -7%

COc1ccc(CN2CCCCC2Cn2nc(C)nc2C)cc1F (stereo not drawn)
cytotoxicity at 70.5 h: -1.41%

O=C(COCc1ccccc1Cl)N1CCCC(n2ccnc2)C1 (stereo not drawn)
cytotoxicity at 70.5 h: 17.5%

CCCc1nc(CN2CCN(C(C)c3nc(C4CC4)no3)CC2)no1 (stereo not drawn)
cytotoxicity at 70.5 h: -5.86%

Cc1ccc(F)cc1S(=O)(=O)NCc1cccc(C(=O)N2CCCC2)c1
cytotoxicity at 70.5 h: -2.82%

O=C(CCc1ccncc1)NCc1csc(Br)c1
cytotoxicity at 70.5 h: -7.74%

Cc1ccccc1CN1CCN(C(C)c2nc(C3CC3)no2)CC1 (stereo not drawn)
cytotoxicity at 70.5 h: 17%

Cc1cnn(CC2CN(Cc3csc(C(C)C)n3)CCO2)c1 (stereo not drawn)
cytotoxicity at 70.5 h: 20.8%

CCc1n[nH]c(C2CN(C(=O)c3cnn(CC)c3)CCO2)n1 (stereo not drawn)
cytotoxicity at 70.5 h: 19.6%

Cc1ccc(-c2nc(CNCC3CN(C)CCO3)cs2)o1 (stereo not drawn)
cytotoxicity at 70.5 h: 18.6%

CS(=O)(=O)NCC1CCCN(C(=O)c2ccc(Cl)o2)C1 (stereo not drawn)
cytotoxicity at 70.5 h: -8.13%

CS(=O)(=O)NCC1CCCN(C(=O)c2cc3ccccc3o2)C1 (stereo not drawn)
cytotoxicity at 70.5 h: -3.7%

O=C(NCCOc1ccc2c(c1)OCO2)N1CCC1
cytotoxicity at 70.5 h: -12.5%

COCc1nc(C(=O)N2CCCC(n3cccn3)C2)cs1 (stereo not drawn)
cytotoxicity at 70.5 h: -13.4%

O=C(c1cc2cc(F)ccc2[nH]1)N1CCC(Nc2cccnn2)CC1
cytotoxicity at 70.5 h: 24.4%

Cc1ccn(-c2cccc(C(=O)N3CCCC(n4ccnc4C)C3)c2)n1 (stereo not drawn)
cytotoxicity at 70.5 h: -11.3%

CCc1nccn1C1CCCN(C(=O)c2csc(COC)n2)C1 (stereo not drawn)
cytotoxicity at 70.5 h: -17.8%

CCC(O)CN1CCN(C(=O)Cc2cc(Cl)ccc2OC)CC1 (stereo not drawn)
cytotoxicity at 70.5 h: -8.81%

O=C(Cc1n[nH]c2ccccc12)N1CCC(Nc2cccnn2)CC1
cytotoxicity at 70.5 h: -2.23%

CC(Cn1cccn1)NC(=O)N1CCN(Cc2cccnc2)CC1 (stereo not drawn)
cytotoxicity at 70.5 h: -7.03%

COc1ccc(Cl)cc1CC(=O)N1CCN(CCO)CC1
cytotoxicity at 70.5 h: 12.5%

Cc1nc(C)c(C(=O)OCCNc2ncccc2C#N)s1
cytotoxicity at 70.5 h: -11.1%

O=C(N1CCC(Nc2cccnn2)CC1)C1(c2ccc(F)cc2)CC1
cytotoxicity at 70.5 h: -6.39%

Cc1nc(C)n(CC2CCCN2Cc2ccn(-c3ccccc3)n2)n1 (stereo not drawn)
cytotoxicity at 70.5 h: 3.67%

CC(=O)N1CCCN(CC(C)(O)c2cccc(C(F)(F)F)c2)CC1 (stereo not drawn)
cytotoxicity at 70.5 h: -3.98%

c1ccc(-n2ccc(CN3CCCC3Cn3cccn3)n2)cc1 (stereo not drawn)
cytotoxicity at 70.5 h: -13.6%

Cc1noc(C(C)C)c1C(=O)NCCCOC(C)C
cytotoxicity at 70.5 h: -4.85%

CC(c1cccc(S(N)(=O)=O)c1)N(C)CCOc1ccccc1 (stereo not drawn)
cytotoxicity at 70.5 h: -16.8%

CCc1nc(C2CCCN2C(=O)CCn2cncn2)no1 (stereo not drawn)
cytotoxicity at 70.5 h: -21.3%

COc1c(C2CCCN2C(=O)c2cncnc2C)c(C)nn1C (stereo not drawn)
cytotoxicity at 70.5 h: 39.1%

O=S(=O)(CCCN1CCCC1Cn1cncn1)c1ccccc1 (stereo not drawn)
cytotoxicity at 70.5 h: 11.6%

CN1CCC/C1=N\S(=O)(=O)c1ccc(NC(=O)c2ccc(F)cc2)cc1
cytotoxicity at 70.5 h: -4.6%

CC(C)CCCNC(=O)Nc1ccc(F)c(C(N)=O)c1
cytotoxicity at 70.5 h: 2.14%

CCn1cc(NC(=O)NCc2ccc3c(c2)OCCO3)cn1
cytotoxicity at 70.5 h: -13%

COc1ccc(F)cc1C(C)NC(=O)Cn1ccc(=O)n(C)c1=O (stereo not drawn)
cytotoxicity at 70.5 h: -6.42%

COc1cc(CNCc2ccc(NC(=O)NC(C)C)cc2)cc(OC)c1
cytotoxicity at 70.5 h: 2.03%

CC(C)NC(=O)Nc1ccc(CNCc2cccc(OC(F)F)c2)cc1
cytotoxicity at 70.5 h: 29.1%

COC(=O)c1cccn1C1CCN(CC(=O)NC2CCCCC2)CC1
cytotoxicity at 70.5 h: -8.68%

CN(C)c1ccc(C(=O)N2CCN(Cc3cscn3)CC2)cc1F
cytotoxicity at 70.5 h: -8.39%

Cc1cc(C)n(CC2CN(Cc3nc(-c4ccco4)no3)CCO2)n1 (stereo not drawn)
cytotoxicity at 70.5 h: 2.57%

Cc1ccc(C#N)cc1NC(=O)NC1CCCN(c2ncccn2)C1 (stereo not drawn)
cytotoxicity at 70.5 h: -0.699%

c1ccc(C(OCCNC2CCc3ncnn3C2)c2ccccc2)cc1 (stereo not drawn)
cytotoxicity at 70.5 h: -5.27%

Cc1cnn(CC2CCCN2C(=O)c2cc3c(F)cccc3[nH]2)c1 (stereo not drawn)
cytotoxicity at 70.5 h: 6.2%

Cc1ccc(-c2cc(CN3CCOC(Cn4cncn4)C3)on2)cc1 (stereo not drawn)
cytotoxicity at 70.5 h: 47.8%

Cc1cnn(CC2CCCN2CC(=O)Nc2nc(C)cs2)c1 (stereo not drawn)
cytotoxicity at 70.5 h: 1.41%

CCN(Cc1cccc2c1OCO2)C(=O)NC1CC1
cytotoxicity at 70.5 h: 8.97%

Cc1cnn(CC2CCN(CC(O)COc3ccc(F)cc3)CC2)c1 (stereo not drawn)
cytotoxicity at 70.5 h: 26.5%

COc1ccccc1OCC(=O)NS(=O)(=O)c1ccc(Br)s1
cytotoxicity at 70.5 h: -4.66%

CCCC(C)C(=O)N1CCC(n2cccc2C(=O)OC)CC1 (stereo not drawn)
cytotoxicity at 70.5 h: -2.08%

COCCc1noc(CN2CCOC(Cn3nc(C)cc3C)C2)n1 (stereo not drawn)
cytotoxicity at 70.5 h: 2.63%

CCc1cnc(CN2CCC(N(C)Cc3noc(C4CC4)n3)C2)o1 (stereo not drawn)
cytotoxicity at 70.5 h: 23.8%

CN(CC(=O)N1CCCN(Cc2cscn2)CC1)c1cnccn1
cytotoxicity at 70.5 h: -5.45%

COCCc1noc(CN2CCCCC2Cn2nc(C)cc2C)n1 (stereo not drawn)
cytotoxicity at 70.5 h: -1.86%

Cc1cnn(CC2CCCN2CC(=O)Nc2cc(C)nn2C)c1 (stereo not drawn)
cytotoxicity at 70.5 h: 9.7%

Cc1ccc(N2CCCC(NCc3ccncc3)C2)nn1 (stereo not drawn)
cytotoxicity at 70.5 h: 11.6%

O=C(COCC1CC1)N1CCCC(n2ccnc2)C1 (stereo not drawn)
cytotoxicity at 70.5 h: 5.1%

CCc1nccn1C1CCCN(C(=O)Cc2cn3ccccc3n2)C1 (stereo not drawn)
cytotoxicity at 70.5 h: -3.88%

Cc1ncc(CNCC2CCCN2c2cccnn2)s1 (stereo not drawn)
cytotoxicity at 70.5 h: -19.7%

CC(=O)N(Cc1noc(C)n1)C1CCN(Cc2ccncc2Cl)C1 (stereo not drawn)
cytotoxicity at 70.5 h: -4.45%

CC(NC(=O)NCc1ccc(Cl)cc1)c1ccccn1 (stereo not drawn)
cytotoxicity at 70.5 h: -10.7%

CNS(=O)(=O)c1cccc(CNC(=O)c2c(C)nn(C)c2C)c1
cytotoxicity at 70.5 h: -3.24%

CC(NC(=O)NCc1ccc(Cl)s1)c1ccccn1 (stereo not drawn)
cytotoxicity at 70.5 h: -20%

COc1c(CNCc2ccc(C(=O)N3CCCC3)cc2)c(C)nn1C
cytotoxicity at 70.5 h: 10.8%

Cc1nn(C)c(N2CCOCC2)c1CNC1CCc2cc(F)ccc21 (stereo not drawn)
cytotoxicity at 70.5 h: -19.2%
